Key:
Assay type in all cases: functional
Mus musculus [1] = assay: Reduction of serum triglycerides in CF1 male mice on day 16 following 20 mg/kg/day i.p. administration.; conditions: route intraperitoneal
Mus musculus [2] = assay: Reduction of serum cholesterol in CF1 male mice on day 9 following 20 mg/kg/day i.p. administration.; conditions: route intraperitoneal
Mus musculus [3] = assay: Reduction of serum cholesterol in CF1 male mice on day 16 following 20 mg/kg/day i.p. administration.; conditions: route intraperitoneal
Mus musculus [4] = assay: Hypolipidemic effects in CF1 male mice at a dose 150 mg/(kg day), ip, percent control of serum triglyceride was determined on day 16
Mus musculus [5] = assay: Hypolipidemic effects in CF1 male mice at a dose 150 mg/(kg day), ip, percent control of serum cholesterol was determined on day 16
Mus musculus [6] = assay: Hypolipidemic effects in CF1 male mice at a dose 150 mg/(kg day), ip,percent control of serum cholesterol was determined on day 9

| SMILES | Serum triglycerides, % of control (Mus musculus [1]) [%] | Serum cholesterol, percent of control (Mus musculus [2]) [%] | Serum cholesterol, percent of control (Mus musculus [3]) [%] | Control (Mus musculus [4]) [%] | Control (Mus musculus [5]) [%] | Control (Mus musculus [6]) [%] |
| --- | --- | --- | --- | --- | --- | --- |
| CCCCCn1[nH]c2ccccc2c1=O | 77 | 79 | 73 | – | – | – |
| CCn1[nH]c2ccccc2c1=O | 71 | 98 | 71 | – | – | – |
| O=C1NC(=O)c2ccccc21 [PHTHALIMIDE] | 44 | 63 | 57 | – | – | – |
| CC(=O)CCn1[nH]c2ccccc2c1=O | 46 | 78 | 46 | – | – | – |
| CC(=O)c1cccc(Cn2[nH]c3ccccc3c2=O)c1 | 56 | 86 | 70 | – | – | – |
| CCCCn1[nH]c2ccc(Cl)cc2c1=O | 83 | 76 | 74 | – | – | – |
| CC(=O)c1ccccc1Cn1[nH]c2ccccc2c1=O | 41 | 98 | 60 | – | – | – |
| CC(=O)c1ccc(Cn2[nH]c3ccccc3c2=O)cc1 | 50 | 76 | 75 | – | – | – |
| Oc1n[nH]c2ccccc12 | 75 | 96 | 80 | – | – | – |
| CCOC(=O)C(C)(C)Oc1ccc(Cl)cc1 [CLOFIBRATE] | – | – | – | 75 | 87 | 92 |
| CCCCn1[nH]c2ccc(C)cc2c1=O | 81 | 95 | 97 | – | – | – |
| O=c1c2ccccc2[nH]n1CCCO | 72 | 96 | 83 | – | – | – |
| CCCn1[nH]c2ccccc2c1=O | 77 | 92 | 68 | – | – | – |
| Cn1[nH]c2ccccc2c1=O | 72 | 92 | 69 | – | – | – |
| CCOC(=O)n1[nH]c(=O)c2ccccc21 | 61 | 78 | 60 | – | – | – |
| O=c1c2ccccc2[nH]n1Cc1ccccc1 | 58 | 83 | 72 | – | – | – |
| O=c1c2ccccc2[nH]n1CCO | 63 | 97 | 83 | – | – | – |
| CCCCn1[nH]c2ccccc2c1=O | 44 | 92 | 46 | – | – | – |
| CCOC(=O)n1c2ccccc2c(=O)n1CCC(=O)O | 70 | 88 | 77 | – | – | – |
| CCCCn1[nH]c2cc(Cl)ccc2c1=O | 69 | 98 | 75 | – | – | – |

Source: ChEMBL document CHEMBL1122669, “Hypolipidemic activity of phthalimide derivatives. 7. Structure-activity studies of indazolone analogues” (1984)
